Reference: patent US20100285149A1, “NOVEL TETRAHYDROPYRIDOTHIOPHENES” (priority 2006, published 2010)

How the values were obtained:
[1] = tested on: RKO (RKOp27) human colon adenocarcinoma cells; assay: Alamar Blue cell viability assay, proliferating (uninduced) RKO p27 cells; type: cell-based; details: anti-proliferative/cytotoxic activity, 72 hours incubation, no Ponasterone A
Protocol: The anti-proliferative/cytotoxic activity of the compounds described herein, can be tested on subclones of RKO (RKOp27) human colon adenocarcinoma cells (Schmidt et al., Oncogene 19, 2423-2429; 2000) using the Alamar Blue cell viability assay (described in O'Brien et al. Eur J Biochem 267, 5421-5426, 2000). The compounds are dissolved as 20 mM solutions in dimethylsulfoxide (DMSO) and subsequently diluted in semi-logarithmic steps. DMSO dilutions are further diluted 1:100 into Dulbecco's modified Eagle's medium (DMEM) containing 10% fetal calf serum to a final concentration twice as much as the final concentration in the test. RKO subclones are seeded into 96 well flat bottom plates at a density of 5000 cells per well in a volume of 50 μl per well. 24 hours after seeding the 50 μl each of the compound dilutions in DMEM medium are added into each well of the 96 Well plate. Each compound dilution is tested as quadruplicates. Wells containing untreated control cells are filled with 50 μl DMEM medium containing 1% DMSO. The cells are then incubated with the substances for 72 hours at 37° C. in a hunified atmosphere containing 5% carbon dioxide. To determine the viability of the cells, 10 μl of an Alamar Blue solution (Biosource) are added and the fluorescence is measured at an extinction of 544 nm and an emission of 590 nm. For the calculation of the cell viability the emission value from untreated cells is set as 100% viability and the emission rates of treated cells are set in relation to the values of untreated cells. Viabilities are expressed as % values.
The corresponding IC50 values of the compounds for anti-proliferative/cytotoxic activity are determined from the concentration-effect curves.
(§1) Representative IC50 values for anti-proliferation/cytotoxicity determined in the mentioned assays follow from the following table A, in which the numbers of the compound correspond to the numbers of the examples.

[2] = tested on: RKO colon adenocarcinoma cells (RKOp27) arrested by the expression of ectopic p27Kip1; assay: Alamar Blue cell viability assay, RKO p27 cells arrested by Ponasterone A induced p27Kip1; type: cell-based; details: Homo sapiens, anti-proliferative/cytotoxic activity, 72 hours incubation, 10 μM Ponasterone A
Protocol: To determine the cell cycle specific mode of action, subclones of RKO colon adenocarcinoma cells (RKOp27 or RKOp21 as described by Schmidt et al. in Oncogene 19, 2423-2429; 2000) are seeded into 96 well flat bottom plates at a density of 15000 cells per well in a volume of 50 μl per well in DMEM growth medium with 10% FCS containing 10 μM Ponasterone A. 24 hours after seeding the 50 μl each of the compound dilutions in DMEM medium are added into each well of the 96 Well plate. Each compound dilution is tested as quadruplicates. Wells containing untreated control cells are filled with 50 μl DMEM medium containing 1% DMSO. The cells are then incubated with the substances for 72 hours at 37° C. in a humidified athmosphere containing 5% carbon dioxide. To determine the viability of the cells, 10 μl of an Alamar Blue solution (Biosource) are added and the fluorescence was measured at an extinction of 544 nm and an emission of 590 nm. For the calculation of the cell viability the emission value from untreated cells is set as 100% viability and the emission rates of treated cells are set in relation to the values of untreated cells. Viabilities are expressed as % values. Viability is compared of proliferating cells grown in the absence of the inducer Ponasterone A, versus viability of cells arrested by the expression of ectopic p27Kip1 induced by Ponasterone A.
as §1

SMILES | IC50 [1] | IC50 [2]
CCNC(=O)N1CCc2c(sc(NC(=O)C3CC3c3ccccc3OC)c2C#N)C1 (racemic) [Example 116, 3-Cyano-2-({1-[(RS)-2-(2-methoxy-phenyl)-cyclopropyl]-methanoyl}-amino)-4,7-dihydro-5H-thieno[2,3-c]pyridine-6-carboxylic acid ethylamide] | ≤ 500 nM | ≥ 100000 nM
CCNC(=O)N1CCc2c(sc(NC(=O)C3CC3c3cccc(OC)c3)c2C#N)C1 (racemic) [Example 117, 3-Cyano-2-({1-[(RS)-2-(3-methoxy-phenyl)-cyclopropyl]-methanoyl}-amino)-4,7-dihydro-5H-thieno[2,3-c]pyridine-6-carboxylic acid ethylamide] | ≤ 500 nM | ≥ 60000 nM
COc1cccc(CCC(=O)Nc2sc3c(c2C#N)CCN(C(=O)NCCc2cn(C)cn2)C3)c1 [Example 71, 3-Cyano-2-[3-(3-methoxy-phenyl)-propanoylamino]-4,7-dihydro-5H-thieno[2,3-c]pyridine-6-carboxylic acid [2-(1-methyl-1H-imidazol-4-yl)-ethyl]-amide] | 500 to 2000 nM | ≥ 100000 nM
COc1ccccc1CCC(=O)Nc1sc2c(c1C#N)CCN(C(=O)NCCc1cn(C)cn1)C2 [Example 105, 3-Cyano-2-[3-(2-methoxy-phenyl)-propanoylamino]-4,7-dihydro-5H-thieno[2,3-c]pyridine-6-carboxylic acid [2-(1-methyl-1H-imidazol-4-yl)-ethyl]-amide] | ≤ 500 nM | ≥ 100000 nM
CCNC(=O)N1CCc2c(sc(NC(=O)CCc3ccccc3OCC)c2C#N)C1 [Example 106, 3-Cyano-2-[3-(2-ethoxy-phenyl)-propanoylamino]-4,7-dihydro-5H-thieno[2,3-c]pyridine-6-carboxylic acid ethylamide] | ≤ 500 nM | ≥ 100000 nM
CCNC(=O)N1CCc2c(sc(NC(=O)CCc3cc(C)ccc3OC)c2C#N)C1 [Example 107, 3-Cyano-2-[3-(2-methoxy-5-methyl-phenyl)-propanoylamino]-4,7-dihydro-5H-thieno[2,3-c]pyridine-6-carboxylic acid ethylamide] | ≤ 500 nM | ≥ 100000 nM
CCNC(=O)N1CCc2c(sc(NC(=O)CCc3cccc(OC)c3)c2C#N)C1 [Example 108, 3-Cyano-2-[3-(3-methoxy-phenyl)-propanoylamino]-4,7-dihydro-5H-thieno[2,3-c]pyridine-6-carboxylic acid ethylamide] | ≤ 500 nM | ≥ 100000 nM
CCNC(=O)N1CCc2c(sc(NC(=O)CCc3ccco3)c2C#N)C1 [Example 109, 3-Cyano-2-(3-furan-2-yl-propanoylamino)-4,7-dihydro-5H-thieno[2,3-c]pyridine-6-carboxylic acid ethylamide] | ≤ 500 nM | ≥ 100000 nM
CCNC(=O)N1CCc2c(sc(NC(=O)CC(C)c3cccc(OC)c3)c2C#N)C1 (stereo not drawn) [Example 110, 3-Cyano-2-[3-(3-methoxy-phenyl)-butanoylamino]-4,7-dihydro-5H-thieno[2,3-c]pyridine-6-carboxylic acid ethylamide] | ≤ 500 nM | ≥ 100000 nM
CCNC(=O)N1CCc2c(sc(NC(=O)CC(C)c3ccccc3OC)c2C#N)C1 (stereo not drawn) [Example 111, 3-Cyano-2-[3-(2-methoxy-phenyl)-butanoylamino]-4,7-dihydro-5H-thieno[2,3-c]pyridine-6-carboxylic acid ethylamide] | ≤ 500 nM | ≥ 60000 nM
CCNC(=O)N1CCc2c(sc(NC(=O)CC(C)c3ccccc3OCC)c2C#N)C1 (stereo not drawn) [Example 112, 3-Cyano-2-[3-(2-ethoxy-phenyl)-butanoylamino]-4,7-dihydro-5H-thieno[2,3-c]pyridine-6-carboxylic acid ethylamide] | ≤ 500 nM | ≥ 100000 nM
CCNC(=O)N1CCc2c(sc(NC(=O)CCc3ccccc3OC)c2C#N)C1 [Example 113, 3-Cyano-2-[3-(2-methoxy-phenyl)-propanoylamino]-4,7-dihydro-5H-thieno[2,3-c]pyridine-6-carboxylic acid ethylamide] | ≤ 500 nM | ≥ 100000 nM
CCNC(=O)N1CCc2c(sc(NC(=O)CC(C)c3ccccc3)c2C#N)C1 (stereo not drawn) [Example 114, 3-Cyano-2-(3-phenyl-butanoylamino)-4,7-dihydro-5H-thieno[2,3-c]pyridine-6-carboxylic acid ethylamide] | ≤ 500 nM | ≥ 100000 nM
CCNC(=O)N1CCc2c(sc(NC(=O)CCc3ccccc3)c2C#N)C1 [Example 115, 3-Cyano-2-(3-phenyl-propanoylamino)-4,7-dihydro-5H-thieno[2,3-c]pyridine-6-carboxylic acid ethylamide] | ≤ 500 nM | ≥ 100000 nM
CCNC(=O)N1CCc2c(sc(NC(=O)CCC3CCCCC3)c2C#N)C1 [Example 118, 3-Cyano-2-(3-cyclohexyl-propanoylamino)-4,7-dihydro-5H-thieno[2,3-c]pyridine-6-carboxylic acid ethylamide] | ≤ 500 nM | ≥ 100000 nM
